Results published in ChEMBL document CHEMBL3244131, “Synthesis of cephalosporin-4-aldehydes” (1977).
≈ marks a conversion by molar mass, not a printed value.

How the values were obtained:
Format in all cases: functional
Staphylococcus aureus = test: Antimicrobial activity against Staphylococcus aureus ATCC 6538P by threefold dilution agar inclusion method
Streptococcus pyogenes = test: Antimicrobial activity against Streptococcus pyogenes ATCC 8668 by threefold dilution agar inclusion method
Escherichia coli = test: Antimicrobial activity against Escherichia coli ATCC 25922-1 by threefold dilution agar inclusion method
Klebsiella pneumoniae = test: Antimicrobial activity against Klebsiella pneumoniae ATCC 10031-2 by threefold dilution agar inclusion method
Proteus vulgaris = test: Antimicrobial activity against Proteus vulgaris ATCC 9484 by threefold dilution agar inclusion method

SMILES	MIC (Staphylococcus aureus)	MIC (Streptococcus pyogenes)	MIC (Escherichia coli)	MIC (Klebsiella pneumoniae)	MIC (Proteus vulgaris)
CC(=O)OCC1=C(C=O)N2C(=O)[C@@H](NC(=O)Cc3cccs3)[C@H]2SC1	30 µg/mL (≈ 78.9 µM)	30 µg/mL (≈ 78.9 µM)	> 100 µg/mL	> 100 µg/mL	> 100 µg/mL
CC(=O)OCC1=C(C2OCCO2)N2C(=O)[C@@H](NC(=O)Cc3cccs3)[C@H]2SC1	> 100 µg/mL	> 100 µg/mL	> 100 µg/mL	> 100 µg/mL	> 100 µg/mL
CC(=O)OCC1=C(/C=N/O)N2C(=O)[C@@H](NC(=O)Cc3cccs3)[C@H]2SC1	> 100 µg/mL	> 100 µg/mL	> 100 µg/mL	> 100 µg/mL	> 100 µg/mL
CO/N=C/C1=C(COC(C)=O)CS[C@@H]2[C@H](NC(=O)Cc3cccs3)C(=O)N12	> 100 µg/mL	> 100 µg/mL	> 100 µg/mL	> 100 µg/mL	> 100 µg/mL
CC(=O)OCC1=C(/C=N/NC(N)=O)N2C(=O)[C@@H](NC(=O)Cc3cccs3)[C@H]2SC1	> 100 µg/mL	> 100 µg/mL	> 100 µg/mL	> 100 µg/mL	> 100 µg/mL
CC(=O)OCC1=C(/C=N/OCC(=O)O)N2C(=O)[C@@H](NC(=O)Cc3cccs3)[C@H]2SC1	> 100 µg/mL	> 100 µg/mL	> 100 µg/mL	> 100 µg/mL	> 100 µg/mL
CC(=O)OCC1=C(/C=C/C(=O)[O-])N2C(=O)[C@@H](NC(=O)Cc3cccs3)[C@H]2SC1.[Na+]	> 100 µg/mL	> 100 µg/mL	> 100 µg/mL	> 100 µg/mL	> 100 µg/mL
CC(=O)OCC1=C(C(=O)O)N2C(=O)[C@@H](NC(=O)Cc3cccs3)[C@H]2SC1 [CEPHALOTHIN]	0.3 µg/mL (≈ 0.757 µM)	< 0.1 µg/mL	30 µg/mL (≈ 75.7 µM)	1 µg/mL (≈ 2.52 µM)	> 100 µg/mL
